Data set [1] deals with Cytochrome P450 2C9 (Homo sapiens, UniProt P11712).
Data set [2] concerns the target Cytochrome P450 2C19 (Homo sapiens, UniProt P33261). The data set can be described thus: Cytochrome panel assay with activity outcomes. Panel member name: p450-cyp2c19 Compounds with AC50 equal or less than 10 uM are considered active. Type of data set: functional.
The target of data set [3] is T1, Polyadenylate-binding protein 1 (Homo sapiens, UniProt P11940). The data set can be described thus: PABP1 MLLE–PAM2 interaction inhibitors, dose response, miRNA deadenylation inhibitor project, biochemical, fluorescence polarization, Cy5-PAM2 peptide, secondary (AID 602260). Type of data set: functional. As to conditions: read-out: IC50_Mean. (Fluorescence polarisation rises when a labelled molecule tumbles more slowly, as on binding a larger partner.)
T1 sequence (P11940 whole entry): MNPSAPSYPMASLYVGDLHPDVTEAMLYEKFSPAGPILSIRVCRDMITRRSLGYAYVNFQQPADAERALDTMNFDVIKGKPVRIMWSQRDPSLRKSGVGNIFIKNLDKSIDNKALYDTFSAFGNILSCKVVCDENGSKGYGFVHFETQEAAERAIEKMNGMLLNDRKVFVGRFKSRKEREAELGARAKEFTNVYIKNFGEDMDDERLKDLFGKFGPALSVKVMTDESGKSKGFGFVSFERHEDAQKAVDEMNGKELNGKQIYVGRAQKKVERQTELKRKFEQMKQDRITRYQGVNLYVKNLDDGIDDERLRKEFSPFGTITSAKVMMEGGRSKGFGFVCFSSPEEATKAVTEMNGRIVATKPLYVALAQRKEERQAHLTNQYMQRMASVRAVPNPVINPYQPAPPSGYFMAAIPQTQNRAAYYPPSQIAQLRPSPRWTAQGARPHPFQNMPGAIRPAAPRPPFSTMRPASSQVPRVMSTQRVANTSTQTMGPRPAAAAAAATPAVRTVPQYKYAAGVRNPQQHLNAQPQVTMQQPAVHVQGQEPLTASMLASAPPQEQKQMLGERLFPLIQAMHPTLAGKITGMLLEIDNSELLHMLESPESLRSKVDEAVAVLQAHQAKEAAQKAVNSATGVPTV

In data set [4] the target is T1, Polyadenylate-binding protein 1. Briefly: PABP1 MLLE–PAM2 binding inhibitor potency, dose response, biochemical, fluorescence polarization, FITC-PAM2 peptide (AID 602259). As to conditions: read-out: IC50_Mean. Type of data set: functional.
The nature of data set [5]: intracellular Trypanosoma cruzi inhibitors in host cells – cell-based, plate reader, cherry-pick samples, set 3, dose response (AID 651818).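 Note: compounds incubated with infected cells for about four days.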 Type of data set: functional.
Data set [6] addresses T2, Short transient receptor potential channel 4 (Mus musculus, UniProt Q9QUQ5).
T2 sequence (Q9QUQ5 whole entry): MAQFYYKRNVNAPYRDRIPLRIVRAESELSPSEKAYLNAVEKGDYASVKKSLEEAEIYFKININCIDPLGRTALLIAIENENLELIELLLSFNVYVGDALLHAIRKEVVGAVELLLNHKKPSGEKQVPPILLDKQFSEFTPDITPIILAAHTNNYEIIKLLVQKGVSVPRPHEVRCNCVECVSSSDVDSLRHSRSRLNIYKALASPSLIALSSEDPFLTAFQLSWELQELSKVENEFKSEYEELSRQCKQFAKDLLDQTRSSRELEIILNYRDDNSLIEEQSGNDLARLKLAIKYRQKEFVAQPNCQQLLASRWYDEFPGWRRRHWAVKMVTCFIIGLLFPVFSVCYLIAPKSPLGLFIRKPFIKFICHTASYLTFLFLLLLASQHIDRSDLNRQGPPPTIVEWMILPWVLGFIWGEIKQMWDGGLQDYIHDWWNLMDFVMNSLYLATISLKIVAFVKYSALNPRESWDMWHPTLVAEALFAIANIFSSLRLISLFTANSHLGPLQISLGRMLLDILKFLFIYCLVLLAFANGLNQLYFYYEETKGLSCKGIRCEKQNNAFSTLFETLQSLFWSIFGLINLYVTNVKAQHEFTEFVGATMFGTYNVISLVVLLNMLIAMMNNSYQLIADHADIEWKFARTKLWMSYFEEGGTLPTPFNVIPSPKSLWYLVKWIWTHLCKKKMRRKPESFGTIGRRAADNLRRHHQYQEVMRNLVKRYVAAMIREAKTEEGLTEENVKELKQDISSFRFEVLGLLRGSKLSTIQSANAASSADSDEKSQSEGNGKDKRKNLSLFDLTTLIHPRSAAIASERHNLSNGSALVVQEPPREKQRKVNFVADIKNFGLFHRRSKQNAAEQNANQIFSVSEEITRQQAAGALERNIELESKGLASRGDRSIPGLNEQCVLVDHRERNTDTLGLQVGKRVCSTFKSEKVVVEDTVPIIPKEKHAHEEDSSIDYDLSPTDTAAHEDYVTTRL
The data set can be described thus: mouse TRPC4 channel inhibitors, dose response, cell-based, HEK293 TRPC4/mu-opioid, Fluo-4 calcium (AID 434942).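 Note: potency of inhibitors blocking the TRPC4 calcium response.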 Type of data set: functional.

Data set [7] addresses T3, Cytochrome P450 1A2 (Homo sapiens, UniProt P05177).
T3 sequence (P05177 whole entry): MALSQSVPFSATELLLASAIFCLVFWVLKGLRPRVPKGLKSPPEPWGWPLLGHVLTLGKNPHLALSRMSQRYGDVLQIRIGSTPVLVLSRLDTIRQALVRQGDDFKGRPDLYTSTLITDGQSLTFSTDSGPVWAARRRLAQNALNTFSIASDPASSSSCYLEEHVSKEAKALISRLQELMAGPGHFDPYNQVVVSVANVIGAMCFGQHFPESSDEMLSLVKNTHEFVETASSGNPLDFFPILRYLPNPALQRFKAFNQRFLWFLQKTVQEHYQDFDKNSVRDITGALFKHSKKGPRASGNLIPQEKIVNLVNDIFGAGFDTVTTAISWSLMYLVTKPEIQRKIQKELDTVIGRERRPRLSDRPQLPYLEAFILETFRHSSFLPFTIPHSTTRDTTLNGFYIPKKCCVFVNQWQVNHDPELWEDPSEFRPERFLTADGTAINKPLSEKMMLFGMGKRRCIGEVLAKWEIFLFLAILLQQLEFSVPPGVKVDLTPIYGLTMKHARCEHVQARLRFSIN

Data set [8] can be described thus: ZM109 Env clade C HIV-1 fusion inhibitors, dose response, HeLa effector, CEM target cells, luciferase, cherry-pick (AID 652058). Type of data set: functional, cell-based.
Data set [9] in a line: inhibitors of clade B AD8 Env fusion, dose response, cell-based, cherry-pick (AID 652062).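 Note: luciferase signal from cell-cell fusion driven by HIV-1 clade B AD8 Env; potency is for inhibitors of fusion seen as a drop in luminescence.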 Type of data set: functional.
Data set [10] can be described thus: inhibitors of HIV Env-driven cell fusion, dose response, cherry-pick (AID 652057). Type of data set: functional, cell-based.
The nature of data set [11]: CEM21 lymphoblast cell cytotoxicity, dose response, cytotoxicity control for viral fusion inhibitor project, CellTiter-Glo luminescence, cherry-picked (AID 652042).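 Note: potency for signal decrease meaning cytotoxicity.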 Type of data set: functional, cell-based. In general terms: ATP-based viability assays read luminescence as a measure of living cells.
Data set [12] in a line: inhibitors of firefly luciferase expression or activity, dose response, H4 neuroglioma cells, luminescence (AID 1990). Type of data set: functional, cell-based.
The nature of data set [13]: Luminescence Cell-Based Dose Response HTS to Identify Inhibitors of 5'UTR Stem-Loop Driven Prion Protein mRNA Translation in H4 Neuroglioblastoma Cells. [Related pubchem assays: 1827 (Project Summary), 1813 (Primary HTS)]. Type of data set: functional.
Data set [14] can be described thus: inhibitors of SNCA 5'UTR-driven reporter translation, confirmation, H4 neuroglioma cells, luminescence (AID 1988). Type of data set: functional, cell-based.
Data set [15] in a line: off-target signal loss in HeLa-CEM21 co-culture – HeLa F-luc CTL cells, cherry-picked, counter-screen for HIV-1 Env fusion inhibitor project, dose response (AID 652040).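 Note: potency for signal decrease marking cytotoxic or nonspecific inhibition.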 Type of data set: functional, cell-based. (The purpose of a counterscreen is to sort out artefacts and off-target activity.)
Data set [16] concerns HEK293. Briefly: cells. To be noted: Homo sapiens.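 Note: cells exposed to compound for 14 hours overnight before viability readout.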
Data set [17] concerns the target Tumor necrosis factor (Homo sapiens, UniProt P01375). The data set can be described thus: TNFa-triggered NF-kB activation inhibitors, SAR follow-up, cell-based, revised (AID 2337). Type of data set: functional.
Data set [18] deals with T4, Microphthalmia-associated transcription factor (Homo sapiens, UniProt O75030).
T4 sequence (O75030 whole entry): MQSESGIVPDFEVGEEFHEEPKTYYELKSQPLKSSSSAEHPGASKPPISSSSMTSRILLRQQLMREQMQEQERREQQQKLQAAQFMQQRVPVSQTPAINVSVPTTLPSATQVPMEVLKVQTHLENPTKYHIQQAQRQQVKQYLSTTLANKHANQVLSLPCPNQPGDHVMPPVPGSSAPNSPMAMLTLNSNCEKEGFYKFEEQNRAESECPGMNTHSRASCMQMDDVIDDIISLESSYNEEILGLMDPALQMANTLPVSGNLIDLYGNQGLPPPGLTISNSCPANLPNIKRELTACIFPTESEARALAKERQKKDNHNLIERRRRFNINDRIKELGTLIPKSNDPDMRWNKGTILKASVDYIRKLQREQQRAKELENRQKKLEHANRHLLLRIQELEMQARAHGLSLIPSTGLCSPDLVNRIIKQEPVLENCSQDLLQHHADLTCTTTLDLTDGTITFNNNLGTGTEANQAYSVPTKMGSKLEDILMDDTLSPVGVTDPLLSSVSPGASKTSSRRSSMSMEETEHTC
The data set can be described thus: TRPM1 promoter luciferase signal decrease, dose response, MITF inhibitor project, cell-based, SK-MEL-5, cherry-picked, set 3 (AID 493073).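 Note: SK-MEL-5 melanoma cells with luciferase driven by the MITF target TRPM1 promoter.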 Type of data set: functional.

Data set [19] deals with Cytochrome P450 3A4 (Homo sapiens, UniProt P08684).
Cytochrome P450 3A4, sequence (P08684 whole entry): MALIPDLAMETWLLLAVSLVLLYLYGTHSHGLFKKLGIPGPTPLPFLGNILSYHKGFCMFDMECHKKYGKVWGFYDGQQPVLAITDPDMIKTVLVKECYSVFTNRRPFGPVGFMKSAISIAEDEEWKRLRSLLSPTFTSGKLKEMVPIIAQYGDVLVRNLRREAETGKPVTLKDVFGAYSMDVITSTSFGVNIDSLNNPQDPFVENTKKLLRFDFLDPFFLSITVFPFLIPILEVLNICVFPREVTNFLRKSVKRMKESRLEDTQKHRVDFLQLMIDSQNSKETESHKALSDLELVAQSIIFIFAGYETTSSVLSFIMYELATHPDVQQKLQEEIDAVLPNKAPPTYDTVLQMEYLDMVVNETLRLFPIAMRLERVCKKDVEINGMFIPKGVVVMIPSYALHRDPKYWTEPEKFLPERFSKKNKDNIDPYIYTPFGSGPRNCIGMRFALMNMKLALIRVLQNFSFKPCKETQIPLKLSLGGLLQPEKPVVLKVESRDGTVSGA

This is an account of results in ChEMBL document CHEMBL1201862, “PubChem BioAssay data set” (2004).

Activity calls are given as the source filed them.

Cytochrome P450 2C9, sequence (P11712 whole entry): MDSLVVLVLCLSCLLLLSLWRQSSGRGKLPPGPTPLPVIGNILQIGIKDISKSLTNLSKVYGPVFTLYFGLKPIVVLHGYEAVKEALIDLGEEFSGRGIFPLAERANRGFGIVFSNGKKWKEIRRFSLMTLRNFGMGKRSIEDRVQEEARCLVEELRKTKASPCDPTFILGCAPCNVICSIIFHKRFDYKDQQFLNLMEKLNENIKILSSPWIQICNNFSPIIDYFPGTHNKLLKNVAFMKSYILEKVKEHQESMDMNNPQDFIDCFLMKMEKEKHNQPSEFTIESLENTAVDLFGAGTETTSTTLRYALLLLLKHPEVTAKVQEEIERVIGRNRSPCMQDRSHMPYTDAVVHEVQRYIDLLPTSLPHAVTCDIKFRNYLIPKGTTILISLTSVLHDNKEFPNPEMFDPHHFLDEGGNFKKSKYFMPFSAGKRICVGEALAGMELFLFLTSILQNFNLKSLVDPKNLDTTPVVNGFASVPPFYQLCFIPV
Cytochrome P450 2C19, sequence (P33261 whole entry): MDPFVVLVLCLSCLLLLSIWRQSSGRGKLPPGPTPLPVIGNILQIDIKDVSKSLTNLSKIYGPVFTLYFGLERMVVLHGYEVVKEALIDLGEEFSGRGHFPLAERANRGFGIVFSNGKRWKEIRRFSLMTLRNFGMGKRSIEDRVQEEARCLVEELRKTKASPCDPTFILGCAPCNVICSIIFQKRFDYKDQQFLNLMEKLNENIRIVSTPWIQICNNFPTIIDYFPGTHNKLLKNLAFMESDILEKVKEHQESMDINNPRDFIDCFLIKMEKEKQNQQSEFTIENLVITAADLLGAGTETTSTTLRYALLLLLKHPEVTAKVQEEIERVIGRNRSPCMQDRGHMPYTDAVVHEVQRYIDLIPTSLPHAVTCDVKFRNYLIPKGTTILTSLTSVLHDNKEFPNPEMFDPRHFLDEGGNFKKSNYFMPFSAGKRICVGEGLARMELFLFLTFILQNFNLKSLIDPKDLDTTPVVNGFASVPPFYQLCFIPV
Tumor necrosis factor, sequence (P01375 whole entry): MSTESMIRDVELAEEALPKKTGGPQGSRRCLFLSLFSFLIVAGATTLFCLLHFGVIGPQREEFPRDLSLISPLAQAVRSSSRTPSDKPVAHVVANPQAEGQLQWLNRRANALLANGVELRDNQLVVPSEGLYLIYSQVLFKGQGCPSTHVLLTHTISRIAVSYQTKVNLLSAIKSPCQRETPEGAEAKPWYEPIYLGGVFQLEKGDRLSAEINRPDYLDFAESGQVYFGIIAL

As to `Br.CCCCN1C2=NCCCN2c2ccccc21`, the AC50 result in data set [1] and in data set [2] was “inconclusive” in each case.

In the case of `Cc1c(C(=O)c2ccc3ccccc3c2)c2cccc3c2n1[C@H](CN1CCOCC1)CO3`, the AC50 – broadly, the midpoint of the concentration-response curve, whichever way the signal moves – in data set [1] is on record as “inconclusive”.

As for `CC1(C)CC2=Nc3ccccc3NC(c3ccccc3F)C2=C(O)C1` (stereo not given), the IC50 in data set [3] and in [4] was > 66 µM (inactive) each time.

On to `Cc1noc(C)c1S(=O)(=O)Nc1ccc2c(c1)CC(=O)N([C@H](C)CO)C[C@@H](C)[C@@H](CN(C)Cc1ccc(C(=O)Nc3ccccc3N)cc1)O2`, for which, in [5], the AC50 is 3.1 µM (active).

For the molecule `Cc1c(N(C)S(=O)(=O)c2cc(C(=O)NCC3CCCO3)ccc2Cl)c(=O)n(-c2ccccc2)n1C` (stereo not given), the EC50 (commonly the midpoint of the concentration-response curve) in [6] is 1.88 µM (active).

Take `COc1ccc(CNc2ncnc3ccc(-c4ccccc4CN(C)C)cc23)c(OC)c1`: the figures for the AC50 in data set [7] and in [1] were 31.6 µM (inconclusive) and “inconclusive”, respectively.

Consider `C[C@H]1CN([C@@H](C)CO)C(=O)c2cccc(NS(=O)(=O)c3ccccc3)c2O[C@H]1CN(C)Cc1ccc(Oc2ccccc2)cc1`, for which, in data set [5], the AC50 is 6.61 µM (active).

For `COc1ccc(CNC(=O)N(C)C[C@H]2OCc3ccccc3-c3c(n(C)c4ccccc34)C(=O)N([C@H](C)CO)C[C@@H]2C)cc1`, the concentration at half-maximal activity (AC50) in [8] is < 0.26 µM (active); in [9], < 0.26 µM (active); in data set [10], < 0.26 µM (active); in [11], 60.8 µM (active).

Consider `COc1ccc(-n2c(=O)c(-c3cn(C)c4ccccc34)nc3cncnc32)cc1`, for which the concentration at half-maximal activity (AC50) result in [1] is reported as “inconclusive”.

For the molecule `CCOC(=O)C1(CCc2ccccc2)CCN(Cc2cccc3c2OCO3)CC1`, the EC50 in [6] is 0.668 µM (active).

Regarding `NC1=NC2=C(CCCC2)C2(CCCCC2)S1`, the EC50 was > 120 µM (not active) in data set [12], 34.5 µM (active) in [13], 9.28 µM (active) in data set [14] and 1.19 µM (active) in [6].

Take `Cc1c(CCOC(=O)C23CC4CC(CC(C)(C4)C2)C3)sc[n+]1CC(=O)c1ccccc1`: the AC50 in data set [8] is 5.44 µM (active); in data set [15] it was 5.26 µM (active); in data set [9], 8.8 µM (active); in data set [10], 1.96 µM (active); in data set [11], 20.5 µM (active).

Turning to `Cc1noc(C)c1S(=O)(=O)Nc1ccc2c(c1)CC(=O)N([C@H](C)CO)C[C@@H](C)[C@H](CN(C)Cc1ccc(Cl)c(Cl)c1)O2`, the AC50 in data set [5] is 6.32 µM (active).

For the molecule `CNCc1c(OCc2ccccc2)ccc2ccccc12`, in [6], the EC50 was 3.76 µM (active).

In the case of `Cc1cccc(C(=O)Nc2nnc(-c3ccc(C(C)(C)C)cc3)s2)c1`, the AC50 entry in data set [1] is listed as “inconclusive”.

On to `CC(=O)N1CCc2cc(S(=O)(=O)N3CCN(c4ccc(Cl)cc4)CC3)ccc21`, for which the IC50 in [16] and in data set [17] was > 20 µM (inactive) each time.

In the case of `Cc1ccc(S(=O)(=O)Nc2ccc3c(c2)CC(=O)N([C@@H](C)CO)C[C@@H](C)[C@@H](CN(C)Cc2ccc(-c4ccccc4)cc2)O3)cc1`, the AC50 in data set [5] was 3.03 µM (active).

For the molecule `O=C(O)c1cc2ccccc2c(N=Nc2cccnc2)c1O`, in [18], the AC50 was 11.4 µM (active).

`Cc1cccc(Cn2c(C(C)(C)C)cc3cccnc32)c1`: the EC50 in data set [6] was 0.531 µM (active).

Regarding `COc1ccc(S(=O)(=O)N2CCC[C@H]2C(=O)NC2=NCCS2)cc1`, the AC50 result in [1] is “inconclusive”; in data set [2] (read-out: AC50) it was 35.5 µM (inconclusive); in [19] it was 17.8 µM (inconclusive).

Consider `CN1CCN(C2=C(Cl)C(=O)N(CCc3ccccc3)C2=O)CC1`, for which the figures for the IC50 in data set [3] and in [4] were > 66 µM (inactive) and 49.1 µM (inactive), respectively.

For the molecule `CCOC(=O)C1(Cc2cccc(OC)c2)CCN(Cc2ccc(OC)c(O)c2)CC1`, in [6], the EC50 was 0.944 µM (active).

For the molecule `CN(CC(=O)Nc1cccc(F)c1)C(=O)CNS(=O)(=O)c1ccc(N(C)C)c([N+](=O)[O-])c1`, the IC50 in [3] and in data set [4] was > 66 µM (inactive) each time.

As to `C[C@@H]1CCCCO[C@H](CN(C)CC2CCCCC2)[C@@H](C)CN([C@H](C)CO)C(=O)c2cc(NC(=O)Nc3ccc(F)cc3)ccc2O1`, in data set [5], the AC50 is 2.33 µM (active).

As for `COc1ccc(C)cc1-n1nnnc1SCn1nnc2ccccc2c1=O`, the IC50 in data set [3] and in data set [4] was > 66 µM (inactive) each time.

Consider `Cc1nc2nc(C)c(NS(=O)(=O)c3ccc4c(c3)CCCC4)c(O)n2n1`, for which the AC50 in data set [18] was 136 µM (active).
